Reference: ChEMBL document CHEMBL1144467, “Effect of topical microbicides on infectious human immunodeficiency virus type 1 binding to epithelial cells” (2007)
Calls of active or inactive are those of the source. The calls are words filed in the database; no cut-off is given here.

How the values were obtained:
[1] = tested on: Human immunodeficiency virus 1; assay: Inhibition of HIV1 LAI binding to human A431 cells relative to control; format: functional, organism-based; details: A-431
[2] = tested on: Human immunodeficiency virus 1; assay: Inhibition of HIV1 BaL binding to human Caco-2 cells relative to control; format: functional, organism-based
[3] = tested on: Human immunodeficiency virus 1; assay: Antiviral activity against HIV1 BaL assessed as logReduction in viral transmission from human A431 cells to human PBMC by ELISA; format: functional
[4] = tested on: Human immunodeficiency virus 1; assay: Inhibition of HIV1 BaL binding to human A431 cells relative to control; format: functional, organism-based; details: A-431
[5] = tested on: Human immunodeficiency virus 1; assay: Inhibition of HIV1 LAI binding to human Caco-2 cells relative to control; format: functional, organism-based

**Q.** How did the Activity [1] turn out when `CC(C)=CCOc1cc(NC(=S)c2ccoc2C)ccc1Cl` [UC 781] was run?
**A.** Its Activity is “inactive”.

**Q.** And the Activity [2]?
**A.** The Activity was “inactive”.

**Q.** What about the Activity [3] of the same molecule?
**A.** Its Activity is 6.1.

**Q.** And the Activity [4]?
**A.** The Activity was “inactive”.

**Q.** What about the Activity [5] of the same molecule?
**A.** Its Activity is “inactive”.
